Entries after “also recorded” stand apart in the source; their conditions may differ. Starred links: 1 amine or outer side, 2 acyl side, 3 side chain; linkers in the order of their positions; H or OH if unused. Positions of bridges follow the written chain, without caps; N, C: chain ends. Non-standard residues stand in square brackets, D forms with d. Residues, ends and D or L forms follow the SMILES beside them. 2Nal = N[C@@H](Cc1ccc2ccccc2c1)C(=O)O; Gly(cPent) = N[C@H](C(=O)O)C1CCCC1; Agb = N=C(N)NCC[C@H](N)C(=O)O; Tle = CC(C)(C)[C@H](N)C(=O)O; hCys = N[C@@H](CCS)C(=O)O; CH2 = C([*:1])[*:2]
Tests used:
[1] = Serum stability test, monkey serum; type: in vitro ADME, cynomolgus monkey; settings: male, residual ratio: IS ratio at 4 hours relative to 0 hours, 37° C.
Description: (§1) • Mouse serum (BALB/c CrSlc, male, Japan SLC, Inc.) • Monkey serum (cynomolgus monkey, male, Japan SLC, Inc.) • Human serum (Caucasian, pool of 5 males and 5 females, KAC Co., Ltd.) • Phenacetin (Nacalai Tesque, Inc.) • Niflumic acid (Nacalai Tesque, Inc.) • Furosemide (Nacalai Tesque, Inc.) • Acetonitrile (FUJIFILM Wako Pure Chemical Corporation) • Methanol (FUJIFILM Wako Pure Chemical Corporation) • Formic acid (FUJIFILM Wako Pure Chemical Corporation) • Dimethyl sulfoxide (DMSO) (FUJIFILM Wako Pure Chemical Corporation)
(§2) Solutions of Phenacetin, niflumic acid, and furosemide were prepared in DMSO at 10 μg/ml, 150 μg/ml, and 200 μg/ml, respectively. 10 μg/ml of phenacetin in DMSO, 150 μg/ml of niflumic acid in DMSO, and 200 μg/ml of furosemide in DMSO were dissolved in a mixture of […]/methanol (75/25, v/v) (final concentrations: phenacetin; 1 ng/mL, niflumic acid: 15 ng/mL, and furosemide 20 ng/mL), and formic acid was added to the prepared test solution (final concentration: 1% (v/v)) to prepare a formic acid-containing IS solution.
(§3) The test substances were prepared in DMSO to a concentration of 10 mM each. Further, the solution was diluted with DMSO to a concentration of 2 mM to make a test substance solution.
(§4) Each serum was preincubated at 37° C. for 5 minutes, and then the test substance solution was added to a final concentration of 20 μM to initiate the reaction. The test substance-added serum was incubated at 37° C. At 0 and 4 hours after the start of the reaction, a portion of the serum was taken out and added to the formic acid-containing IS solution to stop the reaction, which was used as a measurement sample.
(§5) The test substance and IS (phenacetin, niflumic acid, and furosemide) in the measurement sample were measured by LC-MS/MS, and the peak area ratio (IS ratio) of the test substance to IS (any of phenacetin, niflumic acid, and furosemide) was calculated.
(§6) The percentage of the IS ratio at 4 hours after the start of the reaction relative to that at 0 hours after the start of the reaction was used as a residual ratio to evaluate serum stability.

[2] = Serum stability test, mouse serum; type: in vitro ADME; settings: for remaining at 4 h, 20 μM: male, BALB/c CrSlc, mouse, mouse serum, residual ratio: IS ratio at 4 hours relative to 0 hours, 37° C.; for serum stability (in words): statement covers mouse, monkey and human serum, 4 hours
Description: as §1, §2, §3, §4, §5, §6

[3] = Serum stability test, human serum; type: in vitro ADME; settings: both sexes, residual ratio: IS ratio at 4 hours relative to 0 hours, 37° C.
Description: as §1, §2, §3, §4, §5, §6

[4] = biological target: Thrombospondin human platelet (Calbiochem, 605225) (human, UniProt P07996 19-1170); assay: cell-based or functional assay
Sequence of Thrombospondin human platelet (Calbiochem, 605225) (P07996 19-1170 limits assumed): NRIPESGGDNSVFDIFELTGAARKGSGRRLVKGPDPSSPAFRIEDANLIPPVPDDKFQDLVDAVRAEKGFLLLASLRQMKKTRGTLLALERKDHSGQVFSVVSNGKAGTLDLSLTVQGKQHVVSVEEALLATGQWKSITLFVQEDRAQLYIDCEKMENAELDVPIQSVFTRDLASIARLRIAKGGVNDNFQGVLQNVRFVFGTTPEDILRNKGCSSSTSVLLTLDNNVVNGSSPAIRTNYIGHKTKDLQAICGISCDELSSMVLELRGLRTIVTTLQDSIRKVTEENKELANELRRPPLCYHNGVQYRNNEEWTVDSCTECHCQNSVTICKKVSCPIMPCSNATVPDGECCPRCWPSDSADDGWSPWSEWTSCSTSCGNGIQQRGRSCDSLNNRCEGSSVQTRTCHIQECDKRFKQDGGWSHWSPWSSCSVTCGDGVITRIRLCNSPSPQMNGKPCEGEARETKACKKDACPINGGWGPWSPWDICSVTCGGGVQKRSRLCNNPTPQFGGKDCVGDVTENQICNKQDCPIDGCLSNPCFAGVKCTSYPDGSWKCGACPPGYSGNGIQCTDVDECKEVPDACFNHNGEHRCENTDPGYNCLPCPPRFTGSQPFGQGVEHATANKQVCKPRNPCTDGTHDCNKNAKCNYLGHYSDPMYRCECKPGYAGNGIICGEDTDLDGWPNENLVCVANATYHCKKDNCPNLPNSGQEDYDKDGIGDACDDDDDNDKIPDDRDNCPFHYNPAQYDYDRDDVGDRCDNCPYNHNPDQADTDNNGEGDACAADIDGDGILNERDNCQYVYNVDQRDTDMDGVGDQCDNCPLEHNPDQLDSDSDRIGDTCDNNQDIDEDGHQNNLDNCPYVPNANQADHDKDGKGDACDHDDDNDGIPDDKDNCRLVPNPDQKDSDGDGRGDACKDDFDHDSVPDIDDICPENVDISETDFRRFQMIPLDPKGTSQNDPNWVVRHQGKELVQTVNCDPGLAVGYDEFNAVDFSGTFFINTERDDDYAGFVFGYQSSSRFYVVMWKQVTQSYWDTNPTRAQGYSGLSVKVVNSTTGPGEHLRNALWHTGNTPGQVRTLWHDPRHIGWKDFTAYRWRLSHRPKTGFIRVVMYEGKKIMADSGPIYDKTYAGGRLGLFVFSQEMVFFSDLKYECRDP

remaining at 4 h, 20 μM [1] | remaining at 4 h, 20 μM [2] | remaining at 4 h, 20 μM [3] | serum stability (in words) [2] | IC50 for inhibition of cell adhesion (HUVEC to coated human TSP1) [4] | Molecule
14.9% | 64.5% | 78.2% | – | – | CC(C)[C@@H]1NC(=O)[C@H](Cc2c[nH]c3ccccc23)NC(=O)[C@H](CC(N)=O)NC(=O)[C@H](CCNC(=N)N)NC(=O)CNC(=O)[C@H](CO)NC(=O)[C@H](CCCNC(=N)N)NC(=O)[C@H](Cc2ccc3ccccc3c2)NC(=O)CSC[C@@H](C(N)=O)NC(=O)[C@H](C2CCCC2)NC(=O)[C@H](Cc2c[nH]c3ccccc23)NC(=O)[C@H](CCCNC(=N)N)NC1=O [Peptide-115] ({CH2CO}-[2Nal]RSG[Agb]NWVRW[Gly(cPent)]C-NH2; thioether N-12)
93.5% | 98% | 88% | high serum stability | – | N=C(N)NCCC[C@@H]1NC(=O)CNC(=O)[C@@H]2CSCSC[C@H](NC(=O)[C@H](Cc3c[nH]c4ccccc34)NC(=O)[C@H](CC(=O)O)NC1=O)C(=O)N[C@@H](CCCNC(=N)N)C(=O)N[C@@H](Cc1c[nH]c3ccccc13)C(=O)N[C@@H](C1CCCC1)C(=O)N[C@H](C(N)=O)CSCC(=O)N[C@@H](Cc1ccc3ccccc3c1)C(=O)N[C@@H](CCCNC(=N)N)C(=O)N2 [Peptide-130] ({CH2CO}-[2Nal]RCGRDWCRW[Gly(cPent)]C-NH2; linker 3-8 via CH2; thioether N-12)
98.6% | 98.1% | 99% | – | – | N=C(N)NCCC[C@@H]1NC(=O)CNC(=O)[C@@H]2CSSC[C@H](NC(=O)[C@H](Cc3c[nH]c4ccccc34)NC(=O)[C@H](CC(=O)O)NC1=O)C(=O)N[C@@H](CCCNC(=N)N)C(=O)N[C@@H](Cc1c[nH]c3ccccc13)C(=O)N[C@@H](C1CCCC1)C(=O)N[C@H](C(N)=O)CSCC(=O)N[C@@H](Cc1ccc3ccccc3c1)C(=O)N[C@@H](CCCNC(=N)N)C(=O)N2 [Peptide-128] ({CH2CO}-[2Nal]RCGRDWCRW[Gly(cPent)]C-NH2; disulfide 3-8; thioether N-12)
100% | 98.3% | 99.6% | – | – | N=C(N)NCCC[C@@H]1NC(=O)CNC(=O)[C@@H]2CSSCC[C@H](NC(=O)[C@H](Cc3c[nH]c4ccccc34)NC(=O)[C@H](CC(=O)O)NC1=O)C(=O)N[C@@H](CCCNC(=N)N)C(=O)N[C@@H](Cc1c[nH]c3ccccc13)C(=O)N[C@@H](C1CCCC1)C(=O)N[C@H](C(N)=O)CSCC(=O)N[C@@H](Cc1ccc3ccccc3c1)C(=O)N[C@@H](CCCNC(=N)N)C(=O)N2 [Peptide-126] ({CH2CO}-[2Nal]RCGRDW[hCys]RW[Gly(cPent)]C-NH2; disulfide 3-8; thioether N-12)
89.9% | 88% | 105% | high serum stability | – | N=C(N)NCCC[C@@H]1NC(=O)CNC(=O)[C@@H]2CCSSCC[C@H](NC(=O)[C@H](Cc3c[nH]c4ccccc34)NC(=O)[C@H](CC(=O)O)NC1=O)C(=O)N[C@@H](CCCNC(=N)N)C(=O)N[C@@H](Cc1c[nH]c3ccccc13)C(=O)N[C@@H](C1CCCC1)C(=O)N[C@H](C(N)=O)CSCC(=O)N[C@@H](Cc1ccc3ccccc3c1)C(=O)N[C@@H](CCCNC(=N)N)C(=O)N2 [Peptide-11] ({CH2CO}-[2Nal]R[hCys]GRDW[hCys]RW[Gly(cPent)]C-NH2; disulfide 3-8; thioether N-12)
21.1% | 70.9% | 88.5% | – | – | CC(C)[C@@H]1NC(=O)[C@H](Cc2c[nH]c3ccccc23)NC(=O)[C@H](CC(=O)O)NC(=O)[C@H](CCNC(=N)N)NC(=O)CNC(=O)[C@H](CO)NC(=O)[C@H](CCCNC(=N)N)NC(=O)[C@H](Cc2ccc3ccccc3c2)NC(=O)CSC[C@@H](C(N)=O)NC(=O)[C@H](C2CCCC2)NC(=O)[C@H](Cc2c[nH]c3ccccc23)NC(=O)[C@H](CCCNC(=N)N)NC1=O [Peptide-119]
95.1% | 90% | 97.5% | – | – | N=C(N)NCCC[C@@H]1NC(=O)CNC(=O)[C@@H]2CCSCSCC[C@H](NC(=O)[C@H](Cc3c[nH]c4ccccc34)NC(=O)[C@H](CC(=O)O)NC1=O)C(=O)N[C@@H](CCCNC(=N)N)C(=O)N[C@@H](Cc1c[nH]c3ccccc13)C(=O)N[C@@H](C1CCCC1)C(=O)N[C@H](C(N)=O)CSCC(=O)N[C@@H](Cc1ccc3ccccc3c1)C(=O)N[C@@H](CCCNC(=N)N)C(=O)N2 [Peptide-127] ({CH2CO}-[2Nal]R[hCys]GRDW[hCys]RW[Gly(cPent)]C-NH2; linker 3-8 via CH2; thioether N-12)
89.2% | 89.2% | 101% | high serum stability | – | N=C(N)NCCC[C@@H]1NC(=O)CNC(=O)[C@@H]2CSCSCC[C@H](NC(=O)[C@H](Cc3c[nH]c4ccccc34)NC(=O)[C@H](CC(=O)O)NC1=O)C(=O)N[C@@H](CCCNC(=N)N)C(=O)N[C@@H](Cc1c[nH]c3ccccc13)C(=O)N[C@@H](C1CCCC1)C(=O)N[C@H](C(N)=O)CSCC(=O)N[C@@H](Cc1ccc3ccccc3c1)C(=O)N[C@@H](CCCNC(=N)N)C(=O)N2 [Peptide-131] ({CH2CO}-[2Nal]RCGRDW[hCys]RW[Gly(cPent)]C-NH2; linker 3-8 via CH2; thioether N-12)
– | – | – | – | 22.4 nM | [2Nal]R[hCys]G[Agb]DW[hCys]RW[Gly(cPent)]C-NH2 (disulfide 3-8; bridge N-12; not fully specified (N-terminus, bridges)) [Peptide-9]
– | – | – | – | 12.6 nM | [2Nal][Tle][hCys]GRNW[hCys]RW[Gly(cPent)]C-NH2 (disulfide 3-8; bridge N-12; not fully specified (N-terminus, bridges)) [Peptide-8]

Molecule | remaining at 4 h, 20 μM [1] | remaining at 4 h, 20 μM [2] | remaining at 4 h, 20 μM [3] | serum stability (in words) [2] | IC50 for inhibition of cell adhesion (HUVEC to coated human TSP1) [4]
N=C(N)NCCC[C@@H]1NC(=O)[C@H](Cc2ccc3ccccc3c2)NC(=O)CSC[C@@H](C(N)=O)NC(=O)[C@H](C2CCCC2)NC(=O)[C@H](Cc2c[nH]c3ccccc23)NC(=O)[C@H](CCCNC(=N)N)NC(=O)[C@@H]2CCSSCC[C@H](NC1=O)C(=O)NCC(=O)N[C@@H](CCNC(=N)N)C(=O)N[C@@H](CC(=O)O)C(=O)N[C@@H](Cc1c[nH]c3ccccc13)C(=O)N2 [Peptide-9] ({CH2CO}-[2Nal]R[hCys]G[Agb]DW[hCys]RW[Gly(cPent)]C-NH2; disulfide 3-8; thioether N-12) | 93% | 95.8% | 118% | high serum stability; also recorded: higher serum stability | –

Reference: US20250228958A1, “TSP1 INHIBITOR” (Daiichi Sankyo Company, Limited, priority 2022, published 2025)
